# Source: ChEMBL document CHEMBL1201862, “PubChem BioAssay data set” (2004)
# Calls of active or inactive are those of the source.
# Legend:
# [1] = cytotoxicity in HEK-293T cells, dose response, cytotoxicity control for TCR NF-kB inhibitor project, luminescence, T-cell screen hits (AID 489026); format: functional, cell-based;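 note: cells exposed to compound about 14 hours before the viability readout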
# [2] = tested on: J774.A1; test: Confirmation of image-based Screening Assay for Inhibitors of Phagocytosis. [Related pubchem assays (depositor defined):AID1029, AID1643]; format: functional, cell-based; conditions: Mus musculus
# [3] = target: T1, RNA-editing ligase 1, mitochondrial (Trypanosoma brucei brucei, UniProt P86926); test: TbREL1 ligase inhibitors, dose response, biochemical, fluorescence, Trypanosoma brucei (AID 1117295); format: functional
# T1 sequence (P86926 whole entry): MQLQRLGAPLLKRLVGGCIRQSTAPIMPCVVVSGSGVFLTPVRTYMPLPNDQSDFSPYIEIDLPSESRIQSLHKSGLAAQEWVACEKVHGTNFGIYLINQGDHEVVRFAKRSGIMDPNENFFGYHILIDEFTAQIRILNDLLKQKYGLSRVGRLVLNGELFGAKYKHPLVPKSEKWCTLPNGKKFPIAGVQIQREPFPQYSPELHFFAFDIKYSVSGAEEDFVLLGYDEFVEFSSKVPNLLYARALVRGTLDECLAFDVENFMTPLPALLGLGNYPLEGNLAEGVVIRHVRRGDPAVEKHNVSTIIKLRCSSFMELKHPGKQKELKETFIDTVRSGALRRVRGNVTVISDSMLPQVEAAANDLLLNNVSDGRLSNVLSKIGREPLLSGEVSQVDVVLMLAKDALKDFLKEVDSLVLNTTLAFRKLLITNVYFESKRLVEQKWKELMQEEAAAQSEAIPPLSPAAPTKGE
# [4] = target: DNA repair protein RAD52 homolog (Homo sapiens, UniProt P43351); format: functional, biochemical
# [5] = target: T2, Short transient receptor potential channel 4 (Mus musculus, UniProt Q9QUQ5); test: mouse TRPC4 channel inhibitors, dose response, cell-based, HEK293 TRPC4/mu-opioid, Fluo-4 calcium (AID 434942); format: functional;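 note: potency of inhibitors blocking the TRPC4 calcium response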
# T2 sequence (Q9QUQ5 whole entry): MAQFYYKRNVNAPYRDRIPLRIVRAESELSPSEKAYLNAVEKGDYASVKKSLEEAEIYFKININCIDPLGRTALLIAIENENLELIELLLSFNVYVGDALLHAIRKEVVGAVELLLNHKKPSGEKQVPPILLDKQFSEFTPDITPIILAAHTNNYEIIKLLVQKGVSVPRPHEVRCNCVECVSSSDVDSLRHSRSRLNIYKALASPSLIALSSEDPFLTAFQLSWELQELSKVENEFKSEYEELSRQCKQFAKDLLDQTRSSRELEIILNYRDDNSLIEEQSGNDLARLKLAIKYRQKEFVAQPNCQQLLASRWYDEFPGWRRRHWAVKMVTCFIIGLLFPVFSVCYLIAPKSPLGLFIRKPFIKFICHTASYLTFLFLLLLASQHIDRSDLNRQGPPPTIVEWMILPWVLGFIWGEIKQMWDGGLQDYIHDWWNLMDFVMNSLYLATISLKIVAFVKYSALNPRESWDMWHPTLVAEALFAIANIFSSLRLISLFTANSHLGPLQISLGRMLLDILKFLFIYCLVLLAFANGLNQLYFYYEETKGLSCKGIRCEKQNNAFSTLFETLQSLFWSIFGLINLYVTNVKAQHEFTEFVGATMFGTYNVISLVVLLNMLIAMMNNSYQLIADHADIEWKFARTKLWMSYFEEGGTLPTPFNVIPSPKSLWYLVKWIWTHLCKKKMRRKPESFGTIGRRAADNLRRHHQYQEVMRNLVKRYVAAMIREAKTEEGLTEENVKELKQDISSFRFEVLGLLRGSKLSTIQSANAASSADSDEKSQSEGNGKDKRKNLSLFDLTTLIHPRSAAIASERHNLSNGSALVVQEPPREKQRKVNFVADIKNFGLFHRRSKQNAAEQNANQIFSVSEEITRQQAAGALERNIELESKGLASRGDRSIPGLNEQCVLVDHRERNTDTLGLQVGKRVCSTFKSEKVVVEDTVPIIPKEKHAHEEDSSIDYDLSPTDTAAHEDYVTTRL
# [6] = target: G-protein coupled receptor 55 (Homo sapiens, UniProt Q9Y2T6); test: GPR55 agonists via beta-arrestin recruitment, primary screen, imaging, U2OS cells, beta-arrestin-GFP redistribution (AID 1961); format: functional
# [7] = target: Troponin, cardiac muscle (Homo sapiens, UniProt P19429+P45379+P63316); test: inhibitors of cardiac thin filament calcium sensitivity, dose response, biochemical, fluorescence, cardiac regulated thin filaments, triplicate IC50 (AID 504742); format: protein-complex assay
# [8] = target: T3, Small ubiquitin-related modifier 2 (Homo sapiens, UniProt P61956); test: inhibitors of SUMO2 protein-protein interaction, dose response, selectivity assay for SUMO1 interaction inhibitor project, biochemical, FRET, human SUMO2, uHTS hits (AID 624384); format: functional; conditions: read-out: IC50_Mean
# [9] = target: T4, Small ubiquitin-related modifier 1 (Homo sapiens, UniProt P63165); test: inhibitors of SUMO1 peptide binding, dose response, biochemical, fluorescence polarization, uHTS hits (AID 624382); format: functional; conditions: read-out: IC50_Mean
# [10] = HIV-1 Env-mediated cell fusion inhibitors, dose response, CCR5-tropic Env (AID 2279); format: functional
# [11] = target: Genome polyprotein (dengue virus type 2, UniProt P29990); test: Dengue-2 NS5 methyltransferase inhibitors, primary screen, biochemical, confirmation dose response (AID 588689); format: functional
# [12] = target: T3, Small ubiquitin-related modifier 2; test: SUMO2–SIM peptide binding inhibitors, dose response, selectivity assay for SUMO1 interaction inhibitor project, biochemical, fluorescence polarization, uHTS hits (AID 624385); format: functional; conditions: read-out: IC50_Mean
# [13] = target: T5, Replicative DNA helicase DnaB (Mycobacterium tuberculosis, UniProt P9WMR3); test: DnaB intein splicing inhibitors, dose response, biochemical, cell-free fluorescence (AID 449749); format: functional
# T5 sequence (P9WMR3 whole entry): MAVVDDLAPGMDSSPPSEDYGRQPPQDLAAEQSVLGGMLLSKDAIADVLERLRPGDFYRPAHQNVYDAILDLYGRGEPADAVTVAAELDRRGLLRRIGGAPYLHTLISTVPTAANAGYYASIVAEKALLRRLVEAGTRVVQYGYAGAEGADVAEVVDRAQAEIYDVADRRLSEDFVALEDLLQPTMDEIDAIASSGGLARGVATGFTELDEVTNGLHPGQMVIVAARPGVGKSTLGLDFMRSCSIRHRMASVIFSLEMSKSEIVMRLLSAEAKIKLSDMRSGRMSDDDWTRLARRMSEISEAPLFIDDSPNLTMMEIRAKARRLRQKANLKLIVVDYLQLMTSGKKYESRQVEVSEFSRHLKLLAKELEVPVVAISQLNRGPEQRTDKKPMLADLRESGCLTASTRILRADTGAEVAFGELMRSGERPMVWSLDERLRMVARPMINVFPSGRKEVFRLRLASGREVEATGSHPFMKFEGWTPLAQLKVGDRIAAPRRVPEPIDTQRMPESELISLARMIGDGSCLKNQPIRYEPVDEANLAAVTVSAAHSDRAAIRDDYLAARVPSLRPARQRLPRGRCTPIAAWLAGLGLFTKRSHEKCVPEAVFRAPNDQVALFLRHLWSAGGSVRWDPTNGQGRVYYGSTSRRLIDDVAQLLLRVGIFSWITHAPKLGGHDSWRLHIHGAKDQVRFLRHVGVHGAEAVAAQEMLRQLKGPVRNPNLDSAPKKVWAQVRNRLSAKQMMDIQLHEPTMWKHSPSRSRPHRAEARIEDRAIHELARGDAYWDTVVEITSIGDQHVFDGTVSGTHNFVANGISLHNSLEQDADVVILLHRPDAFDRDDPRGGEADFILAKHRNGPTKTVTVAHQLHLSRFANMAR
# [14] = target: T4, Small ubiquitin-related modifier 1; test: inhibitors of SUMO1 partner interactions, dose response, biochemical, FRET (AID 624383); format: functional; conditions: read-out: IC50_Mean
# [15] = target: Dual specificity tyrosine-phosphorylation-regulated kinase 1A (Rattus norvegicus, UniProt Q63470); format: biochemical, Homo sapiens
# [16] = target: T6, Protein RecA (Mycobacterium tuberculosis, UniProt P9WHJ3); test: Fluorescence Cell-Free Homogeneous Dose Retest to Identify Inhibitors of RecA-Intein Splicing Activity. [Related pubchem assays (depositor defined):AID2097, AID2223, AID489010, AID492950]; format: functional
# T6 sequence (P9WHJ3 whole entry): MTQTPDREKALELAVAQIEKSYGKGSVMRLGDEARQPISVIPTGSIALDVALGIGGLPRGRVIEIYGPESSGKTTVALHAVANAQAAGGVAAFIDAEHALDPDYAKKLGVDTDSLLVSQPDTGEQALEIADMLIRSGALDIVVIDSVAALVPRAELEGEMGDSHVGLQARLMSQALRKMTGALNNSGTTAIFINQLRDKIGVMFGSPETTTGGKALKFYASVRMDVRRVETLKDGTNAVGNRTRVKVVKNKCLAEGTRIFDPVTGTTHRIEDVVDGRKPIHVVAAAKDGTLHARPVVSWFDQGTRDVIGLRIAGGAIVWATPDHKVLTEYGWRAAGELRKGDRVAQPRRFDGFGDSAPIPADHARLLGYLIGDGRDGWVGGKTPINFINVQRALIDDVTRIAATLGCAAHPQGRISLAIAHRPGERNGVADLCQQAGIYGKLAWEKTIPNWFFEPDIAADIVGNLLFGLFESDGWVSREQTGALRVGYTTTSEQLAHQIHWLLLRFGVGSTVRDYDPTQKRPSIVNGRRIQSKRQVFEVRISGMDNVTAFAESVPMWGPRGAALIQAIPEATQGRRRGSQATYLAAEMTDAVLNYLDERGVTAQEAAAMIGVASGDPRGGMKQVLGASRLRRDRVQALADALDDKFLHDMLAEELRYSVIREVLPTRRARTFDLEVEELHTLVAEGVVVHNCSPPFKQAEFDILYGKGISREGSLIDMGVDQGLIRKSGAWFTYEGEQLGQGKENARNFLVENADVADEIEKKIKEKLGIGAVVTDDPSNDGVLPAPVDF
# [17] = tested on: Vero; test: Vero cell cytotoxicity, cytotoxicity control for flavivirus capping enzyme inhibitors (AID 588742); format: functional; conditions: Chlorocebus sabaeus
# [18] = target: T7, Kappa-type opioid receptor (Homo sapiens, UniProt P41145); test: SAR analysis of Antagonists of the Kappa Opioid Receptor (KOR) using an Image-Based Assay - Set 4. [Related pubchem assays (depositor defined):AID1777, AID1785]; format: functional
# [19] = target: T7, Kappa-type opioid receptor; test: SAR analysis of small molecule antagonists of the kappa opioid receptor via a luminescent beta-arrestin assay - Set 3. [Related pubchem assays (depositor defined):AID1777, AID1778, AID1785, AID1786, AID1966, AID2133, AID2136, AID2285, AID2495]; format: functional
# [20] = target: T7, Kappa-type opioid receptor; test: SAR analysis of small molecule antagonists of the kappa opioid receptor via a luminescent beta-arrestin assay - Set 6. [Related pubchem assays (depositor defined):AID1777, AID1778, AID1785, AID1786, AID1966, AID2133, AID2136, AID2285]; format: functional
# [21] = target: Mu-type opioid receptor (Homo sapiens, UniProt P35372); test: SAR Analysis of Antagonists of the MOR Receptor using an Image-Based Assay - Set 3. [Related pubchem assays (depositor defined):AID1777, AID1785, AID1786, AID1966, AID2133, AID2136, AID2284, AID2285, AID2420]; format: functional
# [22] = target: Delta-type opioid receptor (Homo sapiens, UniProt P41143); test: SAR Analysis of Antagonists of the DOR Receptor using an Image-Based Assay - Set 3. [Related pubchem assays (depositor defined):AID1777, AID1785]; format: functional;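 note: U2OS cells expressing DOR1 and beta-arrestin GFP stimulated with 100 nM SNC80; imaging of GFP-tagged beta-arrestin moving into spots after receptor activation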
# [23] = target: Phosphomannomutase 2 (Homo sapiens, UniProt O15305); test: Counter screen SAR assay for PMM2 inhibitors via a fluorescence intensity assay. [Related pubchem assays (depositor defined):AID1545, AID1574]
# [24] = target: T8, Mannose-6-phosphate isomerase (Homo sapiens, UniProt P34949); test: PMI enzyme inhibitors, confirmation, biochemical, fluorescence intensity (AID 1535)
# T8 sequence (P34949 whole entry): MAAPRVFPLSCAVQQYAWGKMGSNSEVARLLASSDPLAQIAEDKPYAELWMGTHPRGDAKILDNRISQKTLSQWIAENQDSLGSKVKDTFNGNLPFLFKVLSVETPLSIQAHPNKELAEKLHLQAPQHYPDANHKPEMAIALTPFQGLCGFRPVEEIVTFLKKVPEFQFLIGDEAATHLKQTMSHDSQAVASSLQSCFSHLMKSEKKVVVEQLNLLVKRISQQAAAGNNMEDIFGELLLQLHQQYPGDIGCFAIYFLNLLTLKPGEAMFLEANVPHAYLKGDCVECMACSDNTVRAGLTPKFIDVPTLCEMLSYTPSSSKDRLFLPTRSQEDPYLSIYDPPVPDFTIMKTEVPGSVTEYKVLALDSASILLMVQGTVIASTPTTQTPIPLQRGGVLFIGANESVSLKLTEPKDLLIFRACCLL
structure (smiles),measurement,setting,value
Cc1cccc(N2CCN(C(=O)c3ccc(CS(=O)(=O)c4ccccc4C)o3)CC2C)c1 (centres undefined),IC50,[1],19.5 µM (active)
same,IC50,[2],0.421 µM (active)
CCCCCC[N+](C)(C)CC/C=C1/c2ccccc2Sc2ccc(Cl)cc21,IC50,[3],> 96.6 µM (inactive)
same,AC50,[4],10.2 µM (active)
same,EC50,[5],0.299 µM (active)
CCN(CC)C(=O)CC(c1ccc2c(c1)OCO2)c1c(OC)cc(OC)c2c(-c3ccccc3)cc(=O)oc12 (centres undefined),EC50,[6],2.72 µM (active)
O=[N+]([O-])c1cc([N+](=O)[O-])c2oc(-c3ccccc3)c(Br)c2c1O,IC50,[7],> 23.8 µM (inactive)
same,IC50,[8],> 66 µM (inactive)
same,IC50,[9],4.09 µM (active)
same,IC50,[10],16.3 µM (active)
same,IC50,[11],43.8 µM (active)
same,IC50,[12],3.44 µM (active)
same,AC50,[13],3.08 µM (active)
same,IC50,[14],50.9 µM (inactive)
same,AC50,[15],1.94 µM (active)
same,EC50,[16],111 µM (active)
same,CC50,[17],17.9 µM (active)
Cc1ccnc2c1n1cccc1c(=O)n2CC(=O)NCCCN1CCN(c2ccc(Cl)cc2)CC1,IC50,[18],0.0696 µM (active)
same,IC50,[19],0.363 µM (active)
same,IC50,[20],1.01 µM (active)
same,IC50,[21],> 32 µM (inactive)
same,IC50,[22],> 32 µM (inactive)
Cc1csc(-n2sc3ccccc3c2=O)n1,IC50,[23],> 100 µM (inactive)
same,IC50,[24],> 50 µM (inactive)
